Measured values published in US11339130B1 (Blade Therapeutics, Inc., priority 2016, dated 2022).
Where two headings read alike, the source gives them in different places.

Columns and labels:
Human Calpain 1/NS1 = target: T1, Human Calpain 1/NS1 (Homo sapiens, UniProt P07384); assay: Calpain inhibition continuous fluorescence (FRET) assay, Human Calpain 1/NS1; type: biochemical; conditions: read-out: Human Calpain 1/NS1 IC50
T1 sequence (P07384 1-714): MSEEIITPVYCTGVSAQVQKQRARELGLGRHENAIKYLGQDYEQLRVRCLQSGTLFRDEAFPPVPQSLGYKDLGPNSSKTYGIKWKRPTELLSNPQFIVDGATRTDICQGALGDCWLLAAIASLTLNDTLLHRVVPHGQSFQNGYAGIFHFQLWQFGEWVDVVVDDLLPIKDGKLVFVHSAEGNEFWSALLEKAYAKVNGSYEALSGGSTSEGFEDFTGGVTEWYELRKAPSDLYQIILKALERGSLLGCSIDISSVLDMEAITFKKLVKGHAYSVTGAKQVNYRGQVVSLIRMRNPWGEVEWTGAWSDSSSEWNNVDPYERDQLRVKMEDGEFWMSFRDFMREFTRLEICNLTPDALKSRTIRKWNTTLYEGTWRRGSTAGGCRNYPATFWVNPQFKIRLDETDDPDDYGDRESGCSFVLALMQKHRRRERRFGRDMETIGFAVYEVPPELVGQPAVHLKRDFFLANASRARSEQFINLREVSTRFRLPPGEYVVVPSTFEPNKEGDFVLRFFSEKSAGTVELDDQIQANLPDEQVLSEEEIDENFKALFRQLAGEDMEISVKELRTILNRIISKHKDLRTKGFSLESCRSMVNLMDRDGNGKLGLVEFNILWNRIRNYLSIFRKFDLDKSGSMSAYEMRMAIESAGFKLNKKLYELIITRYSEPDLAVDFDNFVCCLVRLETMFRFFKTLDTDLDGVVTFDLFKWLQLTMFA
T1 sequence (P04632 1-268 partner): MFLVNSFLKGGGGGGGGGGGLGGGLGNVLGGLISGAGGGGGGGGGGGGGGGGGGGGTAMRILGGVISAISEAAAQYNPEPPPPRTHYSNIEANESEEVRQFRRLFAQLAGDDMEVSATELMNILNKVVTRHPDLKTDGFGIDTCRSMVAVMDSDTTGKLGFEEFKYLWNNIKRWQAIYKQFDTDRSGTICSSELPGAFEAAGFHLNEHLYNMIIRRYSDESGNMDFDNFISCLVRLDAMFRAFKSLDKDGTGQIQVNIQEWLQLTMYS
Outline: (§1)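 Fluorescence increase from the cleaved 5-FAM/QXL 520 substrate, read at 490/520 nm, gave activity. Calcium was supplied with the substrate to activate the enzyme in situ after a 25C enzyme-inhibitor preincubation, and IC50s were fit from initial slopes.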

Human Calpain 2/NS1 = target: T2, Human Calpain 2/NS1 (Homo sapiens, UniProt P17655); assay: Calpain inhibition continuous fluorescence (FRET) assay, Human Calpain 2/NS1; type: biochemical; conditions: read-out: Human Calpain 2/NS1 IC50
T2 sequence (P17655 1-700): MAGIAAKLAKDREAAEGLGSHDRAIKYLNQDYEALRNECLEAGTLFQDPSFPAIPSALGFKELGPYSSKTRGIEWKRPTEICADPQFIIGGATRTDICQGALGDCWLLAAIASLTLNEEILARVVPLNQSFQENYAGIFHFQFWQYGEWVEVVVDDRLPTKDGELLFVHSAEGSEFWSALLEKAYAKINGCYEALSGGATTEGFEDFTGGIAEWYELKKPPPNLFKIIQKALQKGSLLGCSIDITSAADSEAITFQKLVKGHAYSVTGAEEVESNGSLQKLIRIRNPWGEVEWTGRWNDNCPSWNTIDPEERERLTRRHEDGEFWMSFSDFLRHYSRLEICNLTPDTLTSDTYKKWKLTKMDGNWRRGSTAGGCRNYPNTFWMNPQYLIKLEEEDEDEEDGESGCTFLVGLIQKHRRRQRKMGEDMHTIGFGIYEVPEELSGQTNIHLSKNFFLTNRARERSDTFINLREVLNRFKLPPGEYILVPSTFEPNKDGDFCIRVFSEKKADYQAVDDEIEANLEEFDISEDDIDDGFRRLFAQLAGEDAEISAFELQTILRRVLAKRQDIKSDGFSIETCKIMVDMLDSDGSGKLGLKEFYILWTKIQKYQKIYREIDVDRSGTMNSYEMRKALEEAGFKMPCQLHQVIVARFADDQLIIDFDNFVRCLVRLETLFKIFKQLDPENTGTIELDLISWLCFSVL
T2 sequence (P04632 1-268 partner): T1 sequence (P04632 1-268 partner)
Outline: as §1

Human Calpain 9/NS1 = target: T3, Human Calpain 9/NS1 (Homo sapiens, UniProt O14815); assay: Calpain inhibition continuous fluorescence (FRET) assay, Human Calpain 9/NS1; type: biochemical; conditions: read-out: Human Calpain 9/NS1 IC50
T3 sequence (O14815 1-690): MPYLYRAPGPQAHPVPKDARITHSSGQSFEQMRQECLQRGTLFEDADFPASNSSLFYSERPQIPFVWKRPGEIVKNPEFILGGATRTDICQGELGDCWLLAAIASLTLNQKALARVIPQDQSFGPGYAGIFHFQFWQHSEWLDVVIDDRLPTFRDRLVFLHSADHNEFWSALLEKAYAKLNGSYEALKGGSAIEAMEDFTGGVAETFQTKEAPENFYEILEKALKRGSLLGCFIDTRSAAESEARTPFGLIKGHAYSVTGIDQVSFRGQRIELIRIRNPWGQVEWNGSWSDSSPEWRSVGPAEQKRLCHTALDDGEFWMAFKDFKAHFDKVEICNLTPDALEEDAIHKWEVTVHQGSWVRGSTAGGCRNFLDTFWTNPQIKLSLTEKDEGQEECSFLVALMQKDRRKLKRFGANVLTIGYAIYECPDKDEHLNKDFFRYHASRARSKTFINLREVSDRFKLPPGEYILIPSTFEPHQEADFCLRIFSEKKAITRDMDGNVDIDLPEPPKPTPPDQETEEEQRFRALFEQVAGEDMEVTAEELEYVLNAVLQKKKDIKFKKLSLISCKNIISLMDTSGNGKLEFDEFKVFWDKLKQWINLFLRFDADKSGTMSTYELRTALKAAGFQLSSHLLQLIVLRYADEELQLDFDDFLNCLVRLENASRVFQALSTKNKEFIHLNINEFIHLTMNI
T3 sequence (P04632 1-268 partner): T1 sequence (P04632 1-268 partner)
Outline: as §1

[1] = tested on: Calpain activity in SH-SY5Y cells (SBDP-150); assay: SH-SY5Y Spectrin western blot assay (SBDP-150 breakdown product, A23187-induced); type: cell-based; conditions: read-out: SH-SY5Y Spectrin IC50
[2] = tested on: Calpain activity in SH-SY5Y cells; assay: SH-SY5Y + AMC fluorescence assay (Suc-LLVY-AMC substrate); type: cell-based; conditions: read-out: SH-SY5Y + AMC IC50
[3] = Homo sapiens, SH-SY5Y cells, A23187-induced SBDP-150, western blot
[4] = Column D, SH-SY5Y cells, A23187-induced SBDP-150

Compound	IC50 (Human Calpain 1/NS1)	IC50 (Human Calpain 2/NS1)	IC50 (Human Calpain 9/NS1)	IC50 [1, 3]	IC50 [2]	IC50 ([1]; Homo sapiens, SH-SY5Y)	IC50 (Human Calpain 1/NS1; Column A)	IC50 (Human Calpain 2/NS1; Column B)	IC50 (Human Calpain 9/NS1; Column C)	IC50 [1, 4]	IC50 ([2]; Column E)
Cc1c(F)cccc1-c1oncc1C(=O)NC(Cc1ccccc1)C(=O)C(N)=O (stereo not drawn) [Compound 594, N-(4-amino-3,4-dioxo-1-phenylbutan-2-yl)-5-(3-fluoro-2-methylphenyl)isoxazole-4-carboxamide]	< 3 µM	< 3 µM	< 3 µM	10 to 25 µM	< 10 µM	–	–	–	–	–	–
COc1cccc(-c2oncc2C(=O)NC(Cc2ccccc2)C(=O)C(N)=O)c1F (stereo not drawn) [Compound 595, N-(4-amino-3,4-dioxo-1-phenylbutan-2-yl)-5-(2-fluoro-3-methoxyphenyl)isoxazole-4-carboxamide]	< 3 µM	< 3 µM	< 3 µM	10 to 25 µM	> 25 µM	–	–	–	–	–	–
NC(=O)C(=O)C(Cc1ccccc1)NC(=O)c1cn(C(F)F)nc1-c1ccnc2ccccc12 (stereo not drawn) [Compound 596, N-(4-amino-3,4-dioxo-1-phenylbutan-2-yl)-1-(difluoromethyl)-3-(quinolin-4-yl)-1H-pyrazole-4-carboxamide]	< 3 µM	< 3 µM	< 3 µM	10 to 25 µM	< 10 µM	–	–	–	–	–	–
Cn1cc(C(=O)NC(Cc2ccccc2)C(=O)C(N)=O)c(-c2cccc3ncccc23)n1 (stereo not drawn) [Compound 597, N-(4-amino-3,4-dioxo-1-phenylbutan-2-yl)-1-methyl-3-(quinolin-5-yl)-1H-pyrazole-4-carboxamide]	< 3 µM	< 3 µM	< 3 µM	10 to 25 µM	10 to 25 µM	–	–	–	–	–	–
NC(=O)C(=O)C(Cc1ccccc1)NC(=O)c1cn(C(F)F)nc1-c1cccc2cnccc12 (stereo not drawn) [Compound 598, N-(4-amino-3,4-dioxo-1-phenylbutan-2-yl)-1-(difluoromethyl)-3-(isoquinolin-5-yl)-1H-pyrazole-4-carboxamide]	< 3 µM	< 3 µM	< 3 µM	< 10 µM	< 10 µM	–	–	–	–	–	–
Cc1cncc(-c2oncc2C(=O)NC(Cc2ccccc2)C(=O)C(N)=O)c1 (stereo not drawn) [Compound 600, N-(4-amino-3,4-dioxo-1-phenylbutan-2-yl)-5-(5-methylpyridin-3-yl)isoxazole-4-carboxamide]	< 3 µM	< 3 µM	< 3 µM	10 to 25 µM	> 25 µM	–	–	–	–	–	–
Cn1cc(C(=O)NC(Cc2ccccc2)C(=O)C(N)=O)c(N2CCN(C(=O)OCc3ccccc3)CC2)n1 (stereo not drawn) [Compound 601, Benzyl 4-(4-((4-amino-3,4-dioxo-1-phenylbutan-2-yl)carbamoyl)-1-methyl-1H-pyrazol-3-yl)piperazine-1-carboxylate]	3 to 10 µM	< 3 µM	3 to 10 µM	> 25 µM	> 25 µM	–	–	–	–	–	–
Cn1cc(C(=O)NC(Cc2ccccc2)C(=O)C(N)=O)c(-c2cc3ccccc3cn2)n1 (stereo not drawn) [Compound 602, N-(4-amino-3,4-dioxo-1-phenylbutan-2-yl)-3-(isoquinolin-3-yl)-1-methyl-1H-pyrazole-4-carboxamide]	< 3 µM	< 3 µM	< 3 µM	10 to 25 µM	> 25 µM	–	–	–	–	–	–
Cn1cc(C(=O)NC(Cc2ccccc2)C(=O)C(N)=O)c(N2CCN(C(=O)OC(C)(C)C)CC2)n1 (stereo not drawn) [Compound 603, Tert-Butyl 4-(4-((4-amino-3,4-dioxo-1-phenylbutan-2-yl)carbamoyl)-1-methyl-1H-pyrazol-3-yl)piperazine-1-carboxylate]	3 to 10 µM	3 to 10 µM	3 to 10 µM	–	> 25 µM	> 25 µM	–	–	–	–	–
Cn1cc(C(=O)NC(Cc2ccccc2)C(=O)C(N)=O)c(-c2ccccc2Cl)n1 (stereo not drawn) [Compound 604, N-(4-amino-3,4-dioxo-1-phenylbutan-2-yl)-3-(2-chlorophenyl)-1-methyl-1H-pyrazole-4-carboxamide]	< 3 µM	< 3 µM	< 3 µM	> 25 µM	< 10 µM	–	–	–	–	–	–
Cn1cc(C(=O)NC(Cc2ccccc2)C(=O)C(N)=O)c(-c2cnc3ccccc3c2)n1 (stereo not drawn) [Compound 605, N-(4-amino-3,4-dioxo-1-phenylbutan-2-yl)-1-methyl-3-(quinolin-3-yl)-1H-pyrazole-4-carboxamide]	< 3 µM	< 3 µM	< 3 µM	> 25 µM	> 25 µM	–	–	–	–	–	–
Cn1cc(C(=O)NC(Cc2ccccc2)C(=O)C(N)=O)c(-c2cccc3cnccc23)n1 (stereo not drawn) [Compound 607, N-(4-amino-3,4-dioxo-1-phenylbutan-2-yl)-3-(isoquinolin-5-yl)-1-methyl-1H-pyrazole-4-carboxamide]	< 3 µM	< 3 µM	< 3 µM	10 to 25 µM	> 25 µM	–	–	–	–	–	–
NC(=O)C(=O)C(Cc1ccccc1)NC(=O)C1CCCN1c1ccccc1 (stereo not drawn) [compound 541]	< 3 µM	< 3 µM	< 3 µM	10 to 25 µM	> 25 µM	–	–	–	–	–	–
(S)—N-(4-amino-3,4-dioxo-1-phenylbutan-2-yl)-3-methyl-1-(5-methylpyridin-2-yl)-1H-pyrazole-5-carboxamide [Compound 121]	–	–	–	–	–	–	< 3 µM	< 3 µM	< 3 µM	< 10 µM	10 to 25 µM
(S)—N-(4-amino-3,4-dioxo-1-phenylbutan-2-yl)-4-(2-fluorophenyl)-2-methyloxazole-5-carboxamide [Compound 267]	–	–	–	–	–	–	< 3 µM	< 3 µM	< 3 µM	10 to 25 µM	< 10 µM
